Data on 13 molecules can be found in patent publication US12539292B2, “BRM targeting compounds and associated methods of use” (Arvinas Operations, Inc., priority 2018, dated 2026).

The target of this assay is T1, BRM (Homo sapiens, UniProt P51531).
T1 construct: In-Cell Western Screen of BRM Degradation in SW1573 Cells; endogenous in cells; host or cells: SW1573
Description: In-cell Western screen of BRM degradation in SW1573 cells (Dmax and DC50). In kind it is cell-based. In a few lines: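 BRM levels were read by LI-COR in-cell Western after two-channel (800/680 nm) immunostaining of fixed, Triton-permeabilised SW1573 cells.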

The mark [1] stands for this setting: BRM degradation, SW1573 cells, read-out: DC50.
Where [2] appears, read: BRM degradation, SW1573 cells, tested at the top concentration of between 0.3 and 10 μM, read-out: Dmax (%) (% degraded).
[3] abbreviates: BRM degradation, SW1573 cells, Table 2D, read-out: *DC50.

Read-outs that look alike come from different tables or passages of the source.

T1 sequence (P51531 whole entry): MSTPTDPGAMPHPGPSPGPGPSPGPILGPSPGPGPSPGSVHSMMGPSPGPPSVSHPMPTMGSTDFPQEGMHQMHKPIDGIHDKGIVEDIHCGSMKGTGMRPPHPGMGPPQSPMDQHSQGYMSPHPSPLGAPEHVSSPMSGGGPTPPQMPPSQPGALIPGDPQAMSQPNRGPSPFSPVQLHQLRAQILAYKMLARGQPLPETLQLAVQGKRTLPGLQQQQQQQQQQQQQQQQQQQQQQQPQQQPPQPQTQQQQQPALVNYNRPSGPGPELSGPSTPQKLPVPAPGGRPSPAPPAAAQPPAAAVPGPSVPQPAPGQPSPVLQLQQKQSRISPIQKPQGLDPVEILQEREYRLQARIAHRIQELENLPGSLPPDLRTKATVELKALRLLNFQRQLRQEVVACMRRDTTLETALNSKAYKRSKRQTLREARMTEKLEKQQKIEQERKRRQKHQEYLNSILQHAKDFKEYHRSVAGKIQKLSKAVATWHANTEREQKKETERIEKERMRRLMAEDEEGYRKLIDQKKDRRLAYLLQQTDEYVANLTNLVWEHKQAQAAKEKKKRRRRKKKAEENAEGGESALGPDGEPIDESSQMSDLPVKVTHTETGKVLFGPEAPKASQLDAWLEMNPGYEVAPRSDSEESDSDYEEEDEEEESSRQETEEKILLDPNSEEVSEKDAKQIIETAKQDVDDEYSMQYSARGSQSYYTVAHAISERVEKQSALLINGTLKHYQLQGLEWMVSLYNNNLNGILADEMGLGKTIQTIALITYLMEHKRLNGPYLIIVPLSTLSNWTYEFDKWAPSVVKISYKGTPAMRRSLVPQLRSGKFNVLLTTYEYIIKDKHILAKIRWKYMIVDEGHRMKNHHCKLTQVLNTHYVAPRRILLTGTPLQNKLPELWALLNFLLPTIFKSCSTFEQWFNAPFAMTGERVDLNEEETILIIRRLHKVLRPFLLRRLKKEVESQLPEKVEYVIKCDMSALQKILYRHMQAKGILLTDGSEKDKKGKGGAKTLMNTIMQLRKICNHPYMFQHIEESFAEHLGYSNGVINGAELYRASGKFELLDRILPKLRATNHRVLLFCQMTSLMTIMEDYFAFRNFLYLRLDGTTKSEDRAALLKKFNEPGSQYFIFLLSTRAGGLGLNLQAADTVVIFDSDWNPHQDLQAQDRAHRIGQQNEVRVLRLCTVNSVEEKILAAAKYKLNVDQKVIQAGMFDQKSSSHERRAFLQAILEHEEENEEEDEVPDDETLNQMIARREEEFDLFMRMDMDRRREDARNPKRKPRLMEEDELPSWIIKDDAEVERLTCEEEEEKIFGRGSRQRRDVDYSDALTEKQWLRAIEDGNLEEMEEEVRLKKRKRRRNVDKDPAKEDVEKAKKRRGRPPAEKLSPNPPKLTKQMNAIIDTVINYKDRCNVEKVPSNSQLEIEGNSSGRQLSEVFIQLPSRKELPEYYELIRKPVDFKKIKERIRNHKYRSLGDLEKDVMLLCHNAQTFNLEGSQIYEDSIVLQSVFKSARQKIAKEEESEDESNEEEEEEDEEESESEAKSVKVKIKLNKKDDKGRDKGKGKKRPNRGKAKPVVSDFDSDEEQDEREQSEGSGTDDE

As to `Cc1ncsc1-c1ccc([C@H](C)NC(=O)[C@@H]2C[C@@H](O)CN2C(=O)[C@@H](c2cc(OCCN3CCC(O[C@H]4C[C@H](Oc5cc(N6C7CCC6CN(c6cc(-c8ccccc8O)nnc6N)C7)ccn5)C4)CC3)no2)C(C)C)cc1F` [compound 253, (2S,4R)-1-((2R)-2-(3-(2-(4-((1r,3R)-3-((4-(3-(3-amino-6-(2-hydroxyphenyl)pyridazin-4-yl)-3,8-diazabicyclo[3.2.1]octan-8-yl)pyridin-2-yl)oxy)cyclobutoxy)piperidin-1-yl)ethoxy)isoxazol-5-yl)-3-methylbutanoyl)-N-((S)-1-(3-fluoro-4-(4-methylthiazol-5-yl)phenyl)ethyl)-4-hydroxypyrrolidine-2-carboxamide], the DC50 under setting [1] was less than 2.5 nM. The Dmax under setting [2] was more than 75%.

Regarding `Cc1ncsc1-c1ccc([C@H](C)NC(=O)[C@@H]2C[C@@H](O)CN2C(=O)[C@@H](c2cc(N3CCC(CN4CCC(O[C@H]5C[C@H](Oc6cc(N7C8CCC7CN(c7cc(-c9ccccc9)nnc7N)C8)ccn6)C5)CC4)CC3)no2)C(C)C)cc1` [compound 605, (2S,4R)-1-((2R)-2-(3-(4-((4-((1r,3r)-3-((4-(3-(3-amino-6-phenylpyridazin-4-yl)-3,8-diazabicyclo[3.2.1]octan-8-yl)pyridin-2-yl)oxy)cyclobutoxy)piperidin-1-yl)methyl)piperidin-1-yl)isoxazol-5-yl)-3-methylbutanoyl)-4-hydroxy-N-((S)-1-(4-(4-methylthiazol-5-yl)phenyl)ethyl)pyrrolidine-2-carboxamide], under “BRM degradation, SW1573 cells, Table 2D”, the DC50 is more than 30 nM.

On to `Cc1ncsc1-c1ccc([C@H](C)NC(=O)[C@@H]2C[C@@H](O)CN2C(=O)[C@@H](c2onc(OCCN3CCC(O[C@H]4C[C@H](Oc5cc(N6C7CCC6CN(c6cc(-c8ccccc8O)nnc6N)C7)ccn5)C4)CC3)c2F)C(C)C)cc1` [compound 209, (2S,4R)-1-((2R)-2-(3-(2-(4-((1r,3R)-3-((4-(3-(3-amino-6-(2-hydroxyphenyl)pyridazin-4-yl)-3,8-diazabicyclo[3.2.1]octan-8-yl)pyridin-2-yl)oxy)cyclobutoxy)piperidin-1-yl)ethoxy)-4-fluoroisoxazol-5-yl)-3-methylbutanoyl)-4-hydroxy-N-((S)-1-(4-(4-methylthiazol-5-yl)phenyl)ethyl)pyrrolidine-2-carboxamide], for which the DC50 under setting [1] was less than 2.5 nM. Moreover, the Dmax under setting [2] was more than 75%.

With `CC(C)[C@@H](C(=O)N1C[C@H](O)C[C@H]1C(=O)N[C@@H](C)c1ccc(-n2ccnn2)cc1)c1cc(OCCN2CCN(CCOc3cc(N4C5CCC4CN(c4cc(-c6ccccc6O)nnc4N)C5)ccn3)CC2)no1` [compound 293, (2S,4R)-N-((S)-1-(4-(1H-1,2,3-triazol-1-yl)phenyl)ethyl)-1-((2R)-2-(3-(2-(4-(2-((4-(3-(3-amino-6-(2-hydroxyphenyl)pyridazin-4-yl)-3,8-diazabicyclo[3.2.1]octan-8-yl)pyridin-2-yl)oxy)ethyl)piperazin-1-yl)ethoxy)isoxazol-5-yl)-3-methylbutanoyl)-4-hydroxypyrrolidine-2-carboxamide], the DC50 under setting [1] lay within 2.5 to 10 nM. Also, the Dmax under setting [2] was more than 75%.

As for `Cc1ncsc1-c1ccc([C@H](C)NC(=O)[C@@H]2C[C@@H](O)CN2C(=O)[C@@H](c2cc(N3CCC(CN4CCC([C@H](C)n5cc(-c6cc(-c7ccccc7O)nnc6N)cn5)CC4)CC3)no2)C(C)C)cc1` (single isomer, unassigned) [compound 573], for the setting “BRM degradation, SW1573 cells, Table 2D, read-out: **Dmax (%) (% degraded)”, the Dmax is more than 75%. In addition, the DC50 under setting [3] was less than 2.5 nM.

Turning to `Cc1ncsc1-c1cc(F)c([C@H](C)NC(=O)[C@@H]2C[C@@H](O)CN2C(=O)[C@H](c2cc(N3CCC(CN4CCC(O[C@H]5C[C@H](Oc6cc(N7C8CCC7CN(c7cc(-c9ccccc9O)nnc7N)C8)ccn6)C5)CC4)CC3)no2)C(C)C)cc1F` [compound 680, (2S,4R)-1-((2S)-2-(3-(4-((4-((1r,3r)-3-((4-(3-(3-amino-6-(2-hydroxyphenyl)pyridazin-4-yl)-3,8-diazabicyclo[3.2.1]octan-8-yl)pyridin-2-yl)oxy)cyclobutoxy)piperidin-1-yl)methyl)piperidin-1-yl)isoxazol-5-yl)-3-methylbutanoyl)-N-((S)-1-(2,5-difluoro-4-(4-methylthiazol-5-yl)phenyl)ethyl)-4-hydroxypyrrolidine-2-carboxamide], under setting [1], the DC50 is more than 30 nM.

For the molecule `Cc1ncsc1-c1ncc([C@H](C)NC(=O)[C@@H]2C[C@@H](O)CN2C(=O)[C@H](c2cc(OCCN3CCC(O[C@H]4C[C@H](Oc5cc(N6C7CCC6CN(c6cc(-c8ccccc8O)nnc6N)C7)ccn5)C4)CC3)no2)C(C)C)cn1` [compound 429, (2S,4R)-1-((2S)-2-(3-(2-(4-((1r,3S)-3-((4-(3-(3-amino-6-(2-hydroxyphenyl)pyridazin-4-yl)-3,8-diazabicyclo[3.2.1]octan-8-yl)pyridin-2-yl)oxy)cyclobutoxy)piperidin-1-yl)ethoxy)isoxazol-5-yl)-3-methylbutanoyl)-4-hydroxy-N-((S)-1-(2-(4-methylthiazol-5-yl)pyrimidin-5-yl)ethyl)pyrrolidine-2-carboxamide], the DC50 (degradation of BRM, read-out: BRM DC50) was more than 30 nM.

Take `Cc1ncsc1-c1ccc([C@H](C)NC(=O)[C@@H]2C[C@@H](O)CN2C(=O)[C@H](c2cc(N3CCC4(CC3)CN(C[C@H]3C[C@H](Oc5cc(N6C7CCC6CN(c6cc(-c8ccccc8O)nnc6N)C7)ccn5)C3)CCO4)no2)C(C)C)cc1` [compound 623, (2S,4R)-1-((2S)-2-(3-(4-(((1r,3S)-3-((4-(3-(3-amino-6-(2-hydroxyphenyl)pyridazin-4-yl)-3,8-diazabicyclo[3.2.1]octan-8-yl)pyridin-2-yl)oxy)cyclobutyl)methyl)-1-oxa-4,9-diazaspiro[5.5]undecan-9-yl)isoxazol-5-yl)-3-methylbutanoyl)-4-hydroxy-N-((S)-1-(4-(4-methylthiazol-5-yl)phenyl)ethyl)pyrrolidine-2-carboxamide]: under setting [3], the DC50 is more than 30 nM.

`Cc1nccn1-c1ccc([C@H](C)NC(=O)[C@@H]2C[C@@H](O)CN2C(=O)[C@@H](c2cc(OC/C=C/c3ccc(O[C@H]4C[C@H](Oc5cc(N6C7CCC6CN(c6cc(-c8ccccc8O)nnc6N)C7)ccn5)C4)cn3)no2)C(C)C)cc1` [compound 277, (2S,4R)-1-((2R)-2-(3-(((E)-3-(5-((1r,3R)-3-((4-(3-(3-amino-6-(2-hydroxyphenyl)pyridazin-4-yl)-3,8-diazabicyclo[3.2.1]octan-8-yl)pyridin-2-yl)oxy)cyclobutoxy)pyridin-2-yl)allyl)oxy)isoxazol-5-yl)-3-methylbutanoyl)-4-hydroxy-N-((S)-1-(4-(2-methyl-1H-imidazol-1-yl)phenyl)ethyl)pyrrolidine-2-carboxamide]: the DC50 under setting [1] is less than 2.5 nM. Also, under setting [2], the Dmax was more than 75%.

Consider `Cc1ncsc1-c1ccc(CNC(=O)[C@H]2C[C@H](O)CN2C(=O)C(c2cc(OCCN3CCN(CCOc4cc(N5C6CCC5CN(c5cc(-c7ccccc7O)nnc5N)C6)ccn4)CC3)no2)C(C)C)cc1` (stereo partly drawn) [compound 57, (2R,4S)-1-(2-(3-(2-(4-(2-((4-(3-(3-amino-6-(2-hydroxyphenyl)pyridazin-4-yl)-3,8-diazabicyclo[3.2.1]octan-8-yl)pyridin-2-yl)oxy)ethyl)piperazin-1-yl)ethoxy)isoxazol-5-yl)-3-methylbutanoyl)-4-hydroxy-N-(4-(4-methylthiazol-5-yl)benzyl)pyrrolidine-2-carboxamide], for which the maximal degradation (Dmax) (BRM degradation, SW1573 cells, when tested at the top concentration of between 0.3 and 10 μM, read-out: Dmax (%) (% degraded)) is less than 50%.

For `Cc1ncsc1-c1ccc([C@H](C)NC(=O)[C@@H]2C[C@@H](O)CN2C(=O)[C@H](c2cc(OCCC3CCN(C[C@H]4C[C@H](N5CCC(C(C)n6cc(-c7cc(-c8ccccc8O)nnc7N)cn6)CC5)C4)CC3)no2)C(C)C)cc1` (stereo partly drawn) [compound 619, (2S,4R)-1-((2S)-2-(3-(2-(1-(((1r,3S)-3-(4-(1-(4-(3-amino-6-(2-hydroxyphenyl)pyridazin-4-yl)-1H-pyrazol-1-yl)ethyl)piperidin-1-yl)cyclobutyl)methyl)piperidin-4-yl)ethoxy)isoxazol-5-yl)-3-methylbutanoyl)-4-hydroxy-N-((S)-1-(4-(4-methylthiazol-5-yl)phenyl)ethyl)pyrrolidine-2-carboxamide], the DC50 under setting [3] is more than 30 nM.

As to `Cc1ncsc1-c1ccc([C@H](C)NC(=O)[C@@H]2C[C@@H](O)CN2C(=O)[C@@H](c2cc(OCCN3CC[C@H](O[C@H]4C[C@H](Oc5cc(N6C7CCC6CN(c6cc(-c8ccccc8O)nnc6N)C7)ccn5)C4)C[C@@H]3C)no2)C(C)C)cc1` (single isomer, unassigned) [compound 636], under setting [1], the DC50 is less than 2.5 nM. The Dmax (BRM degradation, SW1573 cells, read-out: Dmax (% degraded)) is more than 75%.

For `Cc1ncsc1-c1ccc([C@H](C)NC(=O)[C@@H]2C[C@@H](O)CN2C(=O)[C@@H](c2cc(OCC[C@H]3CCN(C[C@H]4C[C@H](Oc5cc(N6C7CCC6CN(c6cc(-c8ccccc8O)nnc6N)C7)ccn5)C4)[C@H](C)C3)no2)C(C)C)cc1` [compound 535, (2S,4R)-1-((2R)-2-(3-(2-((2R,4S)-1-(((1r,3R)-3-((4-(3-(3-amino-6-(2-hydroxyphenyl)pyridazin-4-yl)-3,8-diazabicyclo[3.2.1]octan-8-yl)pyridin-2-yl)oxy)cyclobutyl)methyl)-2-methylpiperidin-4-yl)ethoxy)isoxazol-5-yl)-3-methylbutanoyl)-4-hydroxy-N-((S)-1-(4-(4-methylthiazol-5-yl)phenyl)ethyl)pyrrolidine-2-carboxamide], the DC50 (BRM degradation, read-out: BRM DC50) was less than 2.5 nM. In addition, the Dmax (SW1573, % degraded, when tested at the top concentration of between 0.3 and 10 μM, read-out: BRM Dmax (%)) is more than 75%.

In general, DC50 refers to the concentration giving 50% degradation. One may read the Dmax as the greatest extent of degradation seen.
